These results are taken from patent US20160058806A1, “METHOD FOR STIMULATING INTESTINAL BARRIER INTEGRITY AFTER NON-NATURAL BIRTH” (N.V. Nutricia, priority 2005, published 2016).

For assay [1], the system named is intestinal epithelial cell lines T84. Briefly: Effect of LC-PUFA on IL-4 mediated barrier disruption of T84 monolayers (TER and permeability). The class given is cell-based. As to conditions: IL-4 2 ng/ml; fatty acid 100 μM, mucosal compartment; 48 hr pre-incubation + 48 hr co-incubation. As to the method: (§1) Monolayers (MC) of intestinal epithelial cell lines T84 were incubated in the luminal compartment with different 100 μM polyunsaturated fatty acids ARA (arachidonic acid; 5,8,11,14-eicosatetraenoic acid), DHA (cis-4,7,10,13,16,19 docosahexaenoic acid), EPA (eicosapentaenoic acid) or control palmiiic (C 16:0) acid (Palm) (Sigma, St. Louis, USA) for 0, 24, 48 and 72 hr. The epithelial barrier function was determined by measuring the transepithelial resistance (TER, Ωcm^2) by epithelial volt-ohm meter (EVOM; World Precision Instruments, Germany) and permeability for 4 kD FITC dextran (paracellular permeability marker, Sigma, USA).
Monolayers (MC) of intestinal epithelial cell lines T84 were incubated in the presence of IL-4 (2 ng/ml, scrosal compartment, Sigma, USA) with or without polyunsaturated fatty acids ARA, DHA, GLA, EPA, or control palmitic acid (10 μM or 100 μM, mucosal compartment, Sigma, St. Louis, USA). Cells were pre-incubated with ARA, DHA, EPA, or palmitic acid for 48 hr prior to the IL-4 incubation. The co-incubation of PUFA's and palmitic acid with IL-4 was continued for another 48 hr, while culture medium and additives were changed every 24 hr. The epithelial barrier function was determined by measuring the transepithelial resistance (TER) and permeability as described in example 2.

Assay [2] shares this test system. The assay is described as follows: Effect of LC-PUFA on spontaneous barrier integrity of T84 monolayers (TER and 4 kD FITC dextran flux). Type of assay: cell-based. The following applies: result in words. As for the experimental part:
as §1

`CCCCCCCCCCCCCCCC(=O)O` [Palmitic acid, palmitic acid, reference compound]: in assay [1], the “IL-4 Flux” value was 777 and the “IL-4 TER” value is 321. For `CC/C=C\C/C=C\C/C=C\C/C=C\C/C=C\CCCC(=O)O` [EPA, eicosapentaenoic acid] the same measures were 228 and 539. `CCCCC/C=C\C/C=C\C/C=C\CCCCC(=O)O` [GLA, gamma-linolenic acid]: the “effect on basal barrier integrity resistance and flux” value in assay [2] is listed as “positive effect”. As to `CCCCCC=CCC=CCC=CCC=CCCCC(=O)O` [ARA, 5,8,11,14-eicosatetraenoic acid], in assay [1], the “IL-4 Flux” value is 218 and the “IL-4 TER” value was found to be 636.
